Data reported in patent US12653911B2, “Stimuli-responsive nanoparticles for biomedical applications” (The Brigham and Women's Hospital, Inc., priority 2016, dated 2026).

test: Acid-base titration of the polymers (pKa); type: physicochemical
Description: (§1) Meo-PEG-b-P(DPA-co-GMA-TEPA-C14) was dispersed in deionized water, and a concentrated HCl aqueous solution was added until complete dissolution of the copolymer (1 mg/mL). Subsequently, 1 M NaOH aqueous solution was added in 1-5 μL increments. After each addition, the solution was constantly stirred for 3 min, and the solution pH was measured using a pH meter.
as §1, with “Meo-PEG-b-P(DPA-co-GMA-Rn)” for “Meo-PEG-b-P(DPA-co-GMA-TEPA-C14)”, “until” for “until complete dissolution of”, “copolymer was completely dissolved” for “copolymer”
Subsequently, 1 M NaOH aqueous solution was added in 1-5 μL increments. After each addition, the solution was constantly stirred for 3 min, and the solution pH was measured using a pH meter.

**Q.** For “Meo-PEG113-b-P(DPA80-co-GMA5) [PDPA80-GMA5]”, which pKa is on record?
**A.** 6.24

**Q.** With Meo-PEG-b-P(DPA-co-GMA) [PDPA40-GMA5] as the substance, how does the pKa read?
**A.** 6.34

**Q.** With Meo-PEG-b-P(DPA-co-GMA) [PDPA50-GMA5] as the substance, how does the pKa read?
**A.** 6.31

**Q.** For Meo-PEG-b-P(DPA-co-GMA) [PDPA60-GMA5], which pKa is on record?
**A.** 6.29

**Q.** For Meo-PEG-b-P(DPA-co-GMA) [PDPA70-GMA5], which pKa is on record?
**A.** 6.26

**Q.** For Meo-PEG-b-P(DPA-co-GMA) [PDPA100-GMA5], which pKa is on record?
**A.** 6.21

**Q.** For Meo-PEG-b-P(DPA-co-GMA-R10), which pKa is on record?
**A.** 6.31

**Q.** With “Meo-PEG-b-P(DPA-co-GMA-TEPA-C14) [PDPA40]” as the substance, how does the pKa of polymer read?
**A.** 6.34

**Q.** Which pKa of polymer does the source give for “Meo-PEG-b-P(DPA-co-GMA-TEPA-C14) [PDPA50]” here?
**A.** 6.31

**Q.** For “Meo-PEG-b-P(DPA-co-GMA-TEPA-C14) [PDPA60]”, which pKa of polymer is on record?
**A.** 6.29

**Q.** With “Meo-PEG-b-P(DPA-co-GMA-TEPA-C14) [PDPA70]” as the substance, how does the pKa of polymer read?
**A.** 6.26
